Test results from patent publication US12168013B2, “Antiviral prodrugs and nanoformulations thereof” (Board of Regents of the University of Nebraska, priority 2018, dated 2024).
Converted amounts (≈) assume the structure as drawn. “And” between values parts separate entries of the source, which are not always exact repeats. Equal values may be shown once.

How the values were obtained:
[1] = Plasma cleavage drug hydrolysis kinetics; assay type: in vitro ADME, mouse, rat, rabbit, monkey, dog, and human; settings: for prodrug cleavage in plasma: plasma of all species tested
Experimental: The hydrolysis kinetics of MCAB, M2CAB and M3CAB and relative release of active drug were determined in plasma of different species (mouse, rat, rabbit, monkey, dog, and human). MCAB, M2CAB or M3CAB (1 μM) were incubated in 100 μL plasma at 37° C. At different time points, 1 mL acidified methanol (0.1% formic acid and 25 mM ammonium formate to avoid further prodrug hydrolysis) was added to each sample and vortexed for 3 minutes to stop the reaction. For 0-minute time-point, a 100 μL ice cold plasma was spiked with prodrug stock solution, and 1 ml of ice cold acidic methanol was added immediately. Following the addition of methanol, samples were centrifuged at 15,000 g for 10 minutes, and collected supernatant was analyzed for drug content by UPLC-MS/MS (Waters Xevo TQ-XS).

[2] = Aqueous solubility; assay type: physicochemical; settings: optima water, room temperature; for aqueous solubility: 24 hours; for solubility at 24 h: thermodynamic from solid
Experimental: The aqueous solubility of CAB, MCAB, M2CAB and M3CAB in optima water was determined by adding the excess drug or prodrug powder in 1 mL water to make the saturated aqueous solution. The mixture was stirred for 24 hours at room temperature. Further, the solution was centrifuged at 14000 rpm for 10 minutes to pellet the undissolved powder. The supernatant was collected, lyophilized and dissolved in methanol for the drug content analysis by UPLC UV/Vis.

[3] = tested on: HIV-1ADA; experiment: Half-maximum effective concentration (EC50) assay, HIV-1 RT activity in MDM; assay type: cell-based; settings: HIV-1ADA MOI 0.1, 10 days
Experimental: MDMs were plated in clear flat-bottom 24-well plates at a density of 0.8×10^6 cells/well. […] Following treatment, cells were washed with PBS and cultured in fresh culture medium with half-media replacement every other day. At 1, 5, 10, 15, 20, 25 and 30 days after the treatment, the cells were infected with HIV-1ADA (a macrophage tropic viral strain) at a multiplicity of infection (MOI) of 0.1 infectious particles per cell for 16 hours. Following infection period, MDM were washed with PBS and replenished with fresh media. Cells were cultured for next ten days with half-media replacement every other day, and the full media replacement on the 8th day. The culture media was collected on the 10th day after infection for the measurement of HIV-1 RT activity (Kalter, et al., J. Immunol. (1991) 146:3396-3404; Nowacek, et al., J. Neuroimmune Pharm. (2010) 5:592-601). The extent of infection was expressed as a percent of RT activity by infected MDM that were not treated. Cells were fixed in 2% PFA, and expression of HIV-1 p24 antigen was determined by immunocytochemistry (Nowacek, et al., J. Neuroimmune Pharm. (2010) 5:592-601).
MDM were plated in clear flat-bottom 96-well plates (0.08×10^6 cells/well). […] After 4 hours of viral challenge, cells were washed and given fresh media containing drug (0.1-1000 nM). Subsequently, cell supernatants were collected 10 days later and assayed for HIV-1 RT activity as described above.

[4] = PK and biodistribution in NSG mice; assay type: in vivo
Experimental: Drug levels from plasma and tissues were assayed by UPLC-MS/MS. Drug levels in plasma were monitored weekly.
Following injection, blood samples were collected into heparinized tubes at day 1 post-administration and then weekly up to day 364 by cheek puncture (submandibular vein, MEDIpoint, Inc., Mineola, NY). Collected blood (25 μL) was immediately diluted into 1 mL ACN and stored at −80° C. until drug measurements. Remaining blood samples were centrifuged at 2,000 g for 8 minutes for plasma collection. Plasma was collected and stored at −80° C. for analysis of drug contents. At day 14, 28, 42 and 364 following administration, animals were humanly euthanized by isoflourane inhalation, followed by cervical dislocation. Spleen, lymph nodes, liver, lung, gut, kidney, brain, vaginal tissue, and rectal tissue were collected for quantitation of CAB and prodrug concentrations. CAB, MCAB, M2CAB and M3CAB were quantitated in mouse plasma, blood and tissues by UPLC-MS/MS using a Waters ACQUITY H-class UPLC (Waters, Milford, MA, USA) connected to a Xevo TQ-S micro mass spectrometer. All solvents for sample processing and UPLC-MS/MS analysis were LCMS-grade (Fisher). For plasma and blood samples, 25 μL of sample was added into 1 mL acetonitrile (ACN) spiked with 10 μL internal standard (IS). d3-Dolutegravir (d3-DTG), myristoylated dolutegravir (MDTG), and stearoylated darunavir (SDRV), at a final concentration of 200, 20 and 20 ng/mL, respectively, were used as ISs for CAB, MCAB and M2CAB/M3CAB analyses, respectively. Samples were vortexed and centrifuged at 17,000×g for 10 minutes at 4° C. […] For tissue drug quantitation, 3-200 mg of sample was homogenized in 4-29 volumes of 0.1% v/v formic acid and 2.5 mM ammonium formate containing 90% methanol. […] For CAB quantitation, chromatographic separation of 10 μL CAB sample was performed on a Waters ACQUITY UPLC BEH Shield RP18 column (1.7 μm, 2.1 mm×100 mm) using a 10-minute gradient of mobile phase A (7.5 mM ammonium formate in water, adjusted to pH 3 using formic acid) and mobile phase B (100% ACN) at a flow rate of 0.25 mL/minute. […]

[5] = tested on: HIV-1; settings: protein-adjusted; cited from earlier work
[6] = after oral administration; cited from earlier work
[7] = 1-octanol solubility; settings: organic solvent or mixture
[8] = Chemical stability at acidic, neutral and basic pH; assay type: physicochemical; settings: for prodrug hydrolysis: 24 hours
Experimental: The stability of MCAB, M2CAB and M3CAB in acidic (pH 1), basic (pH 11) and neutral (pH 7) conditions at room temperature and elevated temperature (37° C.) was determined. The stock solution of each prodrug was prepared in DMSO at a concentration of 1 mg/mL. For acidic, basic and neutral assays, 100 μL of stock solution of each prodrug was added to 1900 μL of 0.1 M HCl, 0.1 M NaOH or optima-grade water (pH adjusted to 7), respectively. Samples were then incubated at room temperature and […] under shaking conditions (Innova® 42 shaker incubator, 150 rpm). Samples were withdrawn at 0, 2, 4, 8 and 24 hours and stored at −80° C. Later, samples were analyzed for drug content by UPLC-UV/Vis.

[9] = Human immunodeficiency virus 1, 240 h

CCCCCCCCCCCCCC(=O)Oc1c2n(cc(C(=O)NCc3ccc(F)cc3F)c1=O)CC1OCC(C)N1C2=O (centres unmarked) [MCAB]
prodrug cleavage in plasma ([1]; within 30 minutes, 37° C., 1 μM): more than 85% | aqueous solubility [2]: 2.83 ± 1.37 µg/mL (≈ 4.6 µM) | EC50 [3]: 34.2 nM | prodrug concentration in blood ([4]; day 1 post-injection): 22 ng/mL | prodrug levels in tissues ([4]; day 364): undetectable

C[C@H]1CO[C@@H]2Cn3cc(C(=O)NCc4ccc(F)cc4F)c(=O)c(O)c3C(=O)N12 [CAB, cabotegravir]
4×PA-IC90 [5]: 0.66 µg/mL and 0.664 µg/mL | PA-IC90 [5]: 0.166 µg/mL | solubility at 24 h [2]: 12.1 ± 0.41 µg/mL (≈ 29.9 µM) | systemic half-life [6]: approximately 40 hours | EC50 [3, 9]: 28.4 nM | solubility [7]: 90 ± 2 µg/mL (≈ 222 µM)

CCCCCCCCCCCCCCCCCC(=O)Oc1c2n(cc(C(=O)NCc3ccc(F)cc3F)c1=O)C[C@H]1OC[C@H](C)N1C2=O [M2CAB]
prodrug cleavage in plasma ([1]; by 2 hours, average): 75% | prodrug cleavage in plasma ([1]; by 6 hours, average): 80% | solubility at 24 h [2]: 1.91 ± 0.23 µg/mL (≈ 2.84 µM) | EC50 [3, 9]: 44.7 nM | prodrug hydrolysis ([8]; 37° C., acidic (pH 1)): > 95% | prodrug hydrolysis ([8]; 37° C., neutral (pH 7)): 28% | time to complete hydrolysis ([8]; 37° C., basic (pH 11)): ≤ 2 h | prodrug hydrolysis ([8]; room temperature, acidic (pH 1)): 19% | prodrug hydrolysis ([8]; room temperature, basic (pH 11)): completely hydrolyzed | prodrug hydrolysis ([8]; room temperature, neutral (pH 7)): 24% | concentration at 1 day ([4]; female, NSG, mouse, whole blood, intramuscular, 45 mg/kg CAB-equivalents, day 1 post-injection, read-out: prodrug concentration in blood): 31.3 ng/mL | solubility [7]: 2640 ± 20 µg/mL (≈ 3930 µM)

CCCCCCCCCCCCCCCCCCCCCC(=O)Oc1c2n(cc(C(=O)NCc3ccc(F)cc3F)c1=O)CC1OCC(C)N1C2=O (centres unmarked) [M3CAB]
prodrug remaining in plasma ([1]; after 24 hours of incubation): around 50% | aqueous solubility [2]: 1.51 ± 0.7 µg/mL (≈ 2.07 µM) | EC50 [3]: 51.1 nM
